Data reported in EP0012161A1, “Application of 0-(2-nitro-4-methyl-phenyl)-0-methyl-N-isopropyl-phosphoroamido-thioat for inhibition of side growth of tobacco-plants” (BAYER AG, priority 1978, dated 1980).

Tests used:
Type in all cases: in vivo
Alnus glutinosa = assay: Growth inhibition in woody plants (Alnus glutinosa), greenhouse spray test; settings: 1008 h, one-year seedlings sprayed to run-off, increase in growth measured after 6 weeks, 100 % = growth standstill, 0 % = growth as control, read-out: Wuchshemmung in %
Source text: (§1) Lösungsmittel : 30 Gewichtsteile Dimethylformamid Emulgator: 1 Gewichtsteil Polyoxyethylen-SorbitanMonolaurat
(§2) Zur Herstellung einer zweckmäßigen Wirkstoffzubereitung vermischt man 1 Gewichtsteil Wirkstoff mit den angegebenen Mengen Lösungsmittel und Emulgator und füllt mit Wasser auf die gewünschte Konzentration auf.
(§3) Einjährige Sämlinge mit einer Wuchshöhe von 25 cm werden mit den Wirkstoffzubereitungen bis zum Abtropfen besprüht. Nach 6 Wochen Wachstum im Gewächshaus wird der Zuwachs gemessen und die Wuchshemmung in Prozent des Zuwachses der Kontrollpflanzen berechnet. 100 % bedeuten den Stillstand des Wachstums und 0 % ein Wachstum entsprechend dem der Kontrollpflanzen.

Acer pseudoplatanus = assay: Growth inhibition in woody plants (Acer pseudoplatanus), greenhouse spray test; settings: 1008 h, one-year seedlings sprayed to run-off, increase in growth measured after 6 weeks, 100 % = growth standstill, 0 % = growth as control, read-out: Wuchshemmung in %
Source text: as §1, §2, §3

Tabak = assay: Inhibition of side shoot growth in tobacco, greenhouse spray test after decapitation; settings: 504 h, decapitated plants sprayed to run-off, weight of side shoots after 3 weeks versus control, 100 % = no side shoots, read-out: Wuchshemmung in %
Source text: Lösungsmittel: 30 Gewichtsteile Dimethylformamid Emulgator: 1 Gewichtsteil Polyoxyethylensorbitan-Monolaurat
Zur Herstellung einer zweckmäßigen Wirkstoffzubereitung vermischt man 1 Gewichsteil Wirkstoff mit den angegebenen Mengen Lösungsmittel und.Emulgator und füllt mit Wasser auf die gewünschte Konzentration auf.
Tabakpflanzen werden im Gewächshaus bis zur Entfaltung des 7. Laubblattes angezogen. In diesem Stadium wird die apikale Vegetationsspitze der Pflanzen entfernt und die Pflanzen werden bis zum Abtropfen mit den Wirkstoffzubereitungen besprüht. Nach 3 Wochen werden die Seitentriebe der Pflanzen herausgebrochen und gewogen. Das Gewicht der Seitentriebe der behandelten Pflanzen wird mit dem der Kontrollpflanzen verglichen. 100 % Hemmung bedeutet das Fehlen von Seitentrieben und 0 t ein Wachstum der Seitentriebe entsprechend dem der Kontrollpflanzen.

Weizen = assay: Growth inhibition in wheat, greenhouse spray test; settings: 504 h; active compound concentration 0,05 %; plants at 2-leaf stage sprayed dripping wet; increase in growth measured after 3 weeks; 100 = growth standstill; read-out: Wuchshemmung in %
Source text: (§4) Lösungsmittel: 30 Gewichtsteile Dimethylformamid Emulgator: 1 Gewichtsteil Polyoxyethylen-SorbitanMonolaurat
as §2
(§5) Weizenpflanzen werden im Gewächshaus bis zum 2-BlattStadium angezogen. In diesem Stadium werden die Pflanzen tropfnaß mit den Wirkstoffzubereitungen besprüht. Nach 3 Wochen wird bei allen Pflanzen der Zuwachs gemessen und die Wuchshemmung in % des Zuwachses der Kontrollpflanzen berechnet. Es bedeuten 100 t den Stillstand des Wachstums und 0 % ein Wachstum entsprechend dem der Kontrollpflanzen.

Sojabohnen = assay: Growth inhibition in soybeans, greenhouse spray test; settings: 504 h; active compound concentration 0,05 %; plants with first trifoliate leaf unfolded sprayed dripping wet; increase in growth measured after 3 weeks; 100 % = growth standstill; read-out: Wuchshemmung in %
Source text: as §4, §2
as §5, with “Sojabohnenpflanzen werden” for “Weizenpflanzen werden”, “bis zur vollen Entfaltung des ersten Folgeblattes” for “bis zum 2-BlattStadium”, “100 %” for “100 t”, “und O” for “und 0”

[1] = active compound concentration 0,1 %
[2] = active compound concentration 0,4 %

COP(=S)(NC(C)C)Oc1ccc(C)cc1[N+](=O)[O-] (stereo not drawn)
inhibition at 0.1 % (Alnus glutinosa; [1]): 50% | inhibition at 0.4 % (Alnus glutinosa; [2]): 75% | inhibition at 0.1 % (Acer pseudoplatanus; [1]): 65% | inhibition at 0.4 % (Acer pseudoplatanus; [2]): 83% | inhibition at 0.2 % (Tabak; active compound concentration 0,2 %): 92% | inhibition at 0.4 % (Tabak; [2]): 99% | inhibition at 0.6 % (Tabak; active compound concentration 0,6 %): 99% | inhibition at 0.05 % (Weizen): 35% | inhibition at 0.05 % (Sojabohnen): 80%
